Measurements taken from patent US20230072683A1, “PYRIDO-PYRIMIDIN DERIVATIVES AND PHARMACEUTICAL COMPOSITION, FOR USE IN PREVENTING OR TREATING PI3 KINASE RELATED DISEASES, COMPRISING SAME AS ACTIVE INGREDIENT” (BORYUNG PHARMACEUTICAL CO., LTD, priority 2019, published 2023).

Columns and labels:
[1] = molecular target: PI3K-δ (PI3K(p1108/p857) (h)) (Homo sapiens, UniProt O00329); assay: Evaluation of inhibitory activity against PI3K-δ (HTRF kinase assay); format: biochemical; conditions: for inhibition at 0.01 µM: compound concentration 0.01 μM, read-out: EXP_VALUE(% Inhibition) PI3K-δ 0.01 μM; for inhibition at 0.1 µM: compound concentration 0.1 μM, read-out: EXP_VALUE(% Inhibition) PI3K-δ 0.1 μM
PI3K-δ (PI3K(p1108/p857) (h)), sequence (O00329 whole entry, the tested form may be a part): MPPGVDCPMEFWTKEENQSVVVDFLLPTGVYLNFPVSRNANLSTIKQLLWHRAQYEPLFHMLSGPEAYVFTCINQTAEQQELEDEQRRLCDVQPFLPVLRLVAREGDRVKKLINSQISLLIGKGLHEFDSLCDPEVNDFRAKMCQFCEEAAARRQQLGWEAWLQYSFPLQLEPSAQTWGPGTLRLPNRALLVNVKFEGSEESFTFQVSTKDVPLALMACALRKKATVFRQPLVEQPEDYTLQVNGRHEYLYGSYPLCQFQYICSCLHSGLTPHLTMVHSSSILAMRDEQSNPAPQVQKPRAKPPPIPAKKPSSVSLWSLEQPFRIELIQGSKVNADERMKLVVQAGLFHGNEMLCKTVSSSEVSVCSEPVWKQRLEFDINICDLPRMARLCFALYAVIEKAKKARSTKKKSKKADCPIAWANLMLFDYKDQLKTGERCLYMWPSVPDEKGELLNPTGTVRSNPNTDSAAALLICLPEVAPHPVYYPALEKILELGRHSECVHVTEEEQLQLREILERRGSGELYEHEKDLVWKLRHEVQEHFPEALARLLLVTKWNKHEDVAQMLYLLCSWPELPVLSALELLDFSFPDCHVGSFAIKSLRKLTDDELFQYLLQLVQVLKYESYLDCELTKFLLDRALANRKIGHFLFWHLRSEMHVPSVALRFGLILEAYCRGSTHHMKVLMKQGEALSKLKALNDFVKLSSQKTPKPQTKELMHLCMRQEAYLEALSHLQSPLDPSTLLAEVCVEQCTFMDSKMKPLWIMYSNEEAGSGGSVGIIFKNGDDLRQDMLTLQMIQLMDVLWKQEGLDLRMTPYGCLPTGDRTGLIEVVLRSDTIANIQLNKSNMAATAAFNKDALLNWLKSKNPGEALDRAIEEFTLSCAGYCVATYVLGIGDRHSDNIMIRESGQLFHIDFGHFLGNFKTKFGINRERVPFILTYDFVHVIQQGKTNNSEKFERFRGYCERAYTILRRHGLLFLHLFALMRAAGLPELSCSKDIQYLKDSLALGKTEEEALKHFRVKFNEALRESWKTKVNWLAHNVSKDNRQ
PI3K-δ (PI3K(p1108/p857) (h)), sequence (P27986 whole entry partner, the tested form may be a part): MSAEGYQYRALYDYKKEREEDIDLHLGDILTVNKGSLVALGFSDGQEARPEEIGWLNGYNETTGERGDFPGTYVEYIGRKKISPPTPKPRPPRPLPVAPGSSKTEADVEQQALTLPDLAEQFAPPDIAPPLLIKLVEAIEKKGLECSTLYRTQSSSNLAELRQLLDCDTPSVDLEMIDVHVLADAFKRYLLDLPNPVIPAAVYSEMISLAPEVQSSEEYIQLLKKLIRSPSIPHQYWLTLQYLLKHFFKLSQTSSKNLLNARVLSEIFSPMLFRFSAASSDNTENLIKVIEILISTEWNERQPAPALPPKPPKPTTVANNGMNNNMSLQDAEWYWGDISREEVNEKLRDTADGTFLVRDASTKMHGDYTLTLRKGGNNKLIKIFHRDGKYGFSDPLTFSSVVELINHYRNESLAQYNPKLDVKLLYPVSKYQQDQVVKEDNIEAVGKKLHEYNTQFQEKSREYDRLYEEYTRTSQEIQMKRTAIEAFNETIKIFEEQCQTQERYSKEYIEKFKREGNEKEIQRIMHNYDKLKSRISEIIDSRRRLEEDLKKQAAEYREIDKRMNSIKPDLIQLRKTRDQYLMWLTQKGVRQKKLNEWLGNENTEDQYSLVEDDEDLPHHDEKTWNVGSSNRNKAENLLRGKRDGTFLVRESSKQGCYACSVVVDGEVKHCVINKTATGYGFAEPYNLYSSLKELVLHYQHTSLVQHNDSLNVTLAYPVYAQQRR
In short: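 HTRF read-out (665/620 nm ratio ×10000) used Eu-labelled anti-GST, GST-tagged GRP1 PH domain and streptavidin-allophycocyanin after EDTA/PIP3 stop.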

DNA-PK(h) = DNA-PK(h) (Homo sapiens, UniProt P78527); assay: Evaluation of inhibitory activity against DNA-PK (HTRF kinase assay, GST-cMyc-p53 substrate); format: biochemical; conditions: for inhibition at 0.01 µM: compound concentration 0.01 μM, read-out: EXP_VALUE(% Inhibition) DNA-PK(h) 0.01 μM; for inhibition at 0.1 µM: compound concentration 0.1 μM, read-out: EXP_VALUE(% Inhibition) DNA-PK(h) 0.1 μM
In short: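 Human DNA-PK with 50 μM GST-cMyc-p53 substrate; reaction started with Mg/ATP, run 30 min at room temperature, stopped with EDTA. Phospho-Ser15 p53 detected by HTRF (Eu anti-phospho-Ser15, d2 anti-GST), signal = 10000×(Em 665/Em 620).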

Row | SMILES | inhibition at 0.01 µM [1] [%] | inhibition at 0.01 µM (DNA-PK(h)) [%] | inhibition at 0.1 µM [1] [%] | inhibition at 0.1 µM (DNA-PK(h)) [%]
1 | Cc1nc(-c2cccc3c(Cl)c([C@H](C)Nc4ncnc5[nH]ccc(=O)c45)n(-c4ccccc4)c(=O)c23)[nH]c1C [Example 288, (S)-4-((1-(4-chloro-8-(4,5-dimethyl-1H-imidazol-2-yl)-1-oxo-2-phenyl-1,2-dihydroisoquinolin-3-yl)ethyl)amino)pyrido[2,3-d]pyrimidin-5(8H)-one] | 28 | 8 | – | –
2 | C[C@H](Nc1ncnc2[nH]ccc(=O)c12)c1c(Cl)c2cccc(C3=NC(C)(C)CO3)c2c(=O)n1-c1ccccc1 [Example 289, (S)-4-((1-(4-chloro-8-(4,4-dimethyl-4,5-dihydrooxazol-2-yl)-1-oxo-2-phenyl-1,2-dihydroisoquinolin-3-yl)ethyl)amino)pyrido[2,3-d]pyrimidin-5(8H)-one] | 10 | 27 | – | –
3 | C[C@H](Nc1ncnc2[nH]ccc(=O)c12)c1c(Cl)c2cccc(C(=O)O)c2c(=O)n1-c1ccccc1 [Example 290, (S)-4-chloro-1-oxo-3-(1-((5-oxo-5,8-dihydropyrido[2,3-d]pyrimidin-4-yl)amino)ethyl)-2-phenyl-1,2-dihydroisoquinoline-8-carboxylic acid] | 80 | 39 | 102 | 76
4 | C[C@H](Nc1ncnc2[nH]ccc(=O)c12)c1c(Cl)c2cccc(C(N)=O)c2c(=O)n1-c1ccccc1 [Example 291, (S)-4-chloro-1-oxo-3-(1-((5-oxo-5,8-dihydropyrido[2,3-d]pyrimidin-4-yl)amino)ethyl)-2-phenyl-1,2-dihydroisoquinoline-8-carboxamide] | 91 | 31 | 101 | 78
5 | CCOC(=O)c1cccc2c(Cl)c([C@H](C)Nc3ncnc4[nH]ccc(=O)c34)n(-c3ccccc3)c(=O)c12 [Example 292, ethyl(S)-4-chloro-1-oxo-3-(1-((5-oxo-5,8-dihydropyrido[2,3-d]pyrimidin-4-yl)amino)ethyl)-2-phenyl-1,2-dihydroisoquinoline-8-carboxylate] | 99 | 79 | 112 | 99
6 | C[C@H](Nc1ncnc2[nH]ccc(=O)c12)c1c(Cl)c2cccc(-c3nc(N)nc(N)n3)c2c(=O)n1-c1ccccc1 [Example 293, (S)-4-((1-(4-chloro-8-(4,6-diamino-1,3,5-triazin-2-yl)-1-oxo-2-phenyl-1,2-dihydroisoquinolin-3-yl)ethyl)amino)pyrido[2,3-d]pyrimidin-5(8H)-one] | 24 | 1 | – | –
7 | C[C@H](Nc1ncnc2[nH]ccc(=O)c12)c1c(Cl)c2cccc(N)c2c(=O)n1-c1ccccc1 [Example 294, (S)-4-((1-(8-amino-4-chloro-1-oxo-2-phenyl-1,2-dihydroisoquinolin-3-yl)ethyl)amino)pyrido[2,3-d]pyrimidin-5(8H)-one] | 65 | 49 | – | –
8 | C[C@H](Nc1ncnc2[nH]ccc(=O)c12)c1c(Cl)c2cccc(NC(=O)C(C)(C)C)c2c(=O)n1-c1ccccc1 [Example 295, (S)—N-(4-chloro-1-oxo-3-(1-((5-oxo-5,8-dihydropyrido[2,3-d]pyrimidin-4-yl)amino)ethyl)-2-phenyl-1,2-dihydroisoquinolin-8-yl) pivalamide] | 24 | 56 | – | –
9 | CC(=O)Nc1cccc2c(Cl)c([C@H](C)Nc3ncnc4[nH]ccc(=O)c34)n(-c3ccccc3)c(=O)c12 [Example 296, (S)—N-(4-chloro-1-oxo-3-(1-((5-oxo-5,8-dihydropyrido[2,3-d]pyrimidin-4-yl)amino)ethyl)-2-phenyl-1,2-dihydroisoquinolin-8-yl) acetamide] | 46 | 30 | – | –
10 | CCCCC(=O)Nc1cccc2c(Cl)c([C@H](C)Nc3ncnc4[nH]ccc(=O)c34)n(-c3ccccc3)c(=O)c12 [Example 297, (S)—N-(4-chloro-1-oxo-3-(1-((5-oxo-5,8-dihydropyrido[2,3-d]pyrimidin-4-yl)amino)ethyl)-2-phenyl-1,2-dihydroisoquinolin-8-yl)pentanamide] | 9 | 45 | – | –
11 | C[C@H](Nc1ncnc2[nH]ccc(=O)c12)c1c(Cl)c2cccc(NC(=O)C3CCC3)c2c(=O)n1-c1ccccc1 [Example 298, (S)—N-(4-chloro-1-oxo-3-(1-((5-oxo-5,8-dihydropyrido[2,3-d]pyrimidin-4-yl)amino)ethyl)-2-phenyl-1,2-dihydroisoquinolin-8-yl)cyclobutanecarboxamide] | 11 | 50 | – | –
12 | C[C@H](Nc1ncnc2[nH]ccc(=O)c12)c1c(Cl)c2cccc(NC(=O)c3ccccc3)c2c(=O)n1-c1ccccc1 [Example 299, (S)—N-(4-chloro-1-oxo-3-(1-((5-oxo-5,8-dihydropyrido[2,3-d]pyrimidin-4-yl)amino)ethyl)-2-phenyl-1,2-dihydroisoquinolin-8-yl)benzamide] | 13 | 17 | – | –
13 | C[C@H](Nc1ncnc2[nH]ccc(=O)c12)c1c(Cl)c2cccc(NS(C)(=O)=O)c2c(=O)n1-c1ccccc1 [Example 300, (S)—N-(4-chloro-1-oxo-3-(1-((5-oxo-5,8-dihydropyrido[2,3-d]pyrimidin-4-yl)amino)ethyl)-2-phenyl-1,2-dihydroisoquinolin-8-yl) methanesulfonamide] | 63 | 44 | – | –
14 | C[C@H](Nc1ncnc2[nH]ccc(=O)c12)c1c(Cl)c2cccc(NS(=O)(=O)C3CC3)c2c(=O)n1-c1ccccc1 [Example 301, (S)—N-(4-chloro-1-oxo-3-(1-((5-oxo-5,8-dihydropyrido[2,3-d]pyrimidin-4-yl)amino)ethyl)-2-phenyl-1,2-dihydroisoquinolin-8-yl)cyclopropanesulfonamide] | 41 | 14 | – | –
15 | C[C@H](Nc1ncnc2[nH]ccc(=O)c12)c1c(Cl)c2cccc(NS(=O)(=O)CC(F)(F)F)c2c(=O)n1-c1ccccc1 [Example 302, (S)—N-(4-chloro-1-oxo-3-(1-((5-oxo-5,8-dihydropyrido[2,3-d]pyrimidin-4-yl)amino)ethyl)-2-phenyl-1,2-dihydroisoquinolin-8-yl)-2,2,2-trifluoroethane-1-sulfonamide] | 16 | 16 | – | –
16 | C[C@H](Nc1ncnc2[nH]ccc(=O)c12)c1c(Cl)c2cccc(NS(=O)(=O)c3ccc(F)cc3)c2c(=O)n1-c1ccccc1 [Example 303, (S)—N(4-chloro-1-oxo-3-(1-((5-oxo-5,8-dihydropyrido[2,3-d]pyrimidin-4-yl)amino)ethyl)-2-phenyl-1,2-dihydroisoquinolin-8-yl)-4-fluorobenzenesulfonamide] | 12 | 6 | – | –
17 | C[C@H](Nc1ncnc2[nH]ccc(=O)c12)c1c(Cl)c2cccc(C#Cc3cccs3)c2c(=O)n1-c1ccccc1 [Example 304, (S)-4-((1-(4-chloro-1-oxo-2-phenyl-8-(thiophen-2-ylethynyl)-1,2-dihydroisoquinolin-3-yl)ethyl)amino)pyrido[2,3-d]pyrimidin-5(8H)-one] | 71 | 27 | 101 | 71
